# Assay results as given in PMC2866494 (Phytochemistry, 2010).
# Key:
# COX-1 = target: T1, COX-1 (Ovis aries, UniProt P05979); experiment: COX-1 enzyme assay, PGE2 by LC-MS-MS, single point; assay type: biochemical; details: read-out: CX1 ^f
# T1 sequence (P05979 25-600): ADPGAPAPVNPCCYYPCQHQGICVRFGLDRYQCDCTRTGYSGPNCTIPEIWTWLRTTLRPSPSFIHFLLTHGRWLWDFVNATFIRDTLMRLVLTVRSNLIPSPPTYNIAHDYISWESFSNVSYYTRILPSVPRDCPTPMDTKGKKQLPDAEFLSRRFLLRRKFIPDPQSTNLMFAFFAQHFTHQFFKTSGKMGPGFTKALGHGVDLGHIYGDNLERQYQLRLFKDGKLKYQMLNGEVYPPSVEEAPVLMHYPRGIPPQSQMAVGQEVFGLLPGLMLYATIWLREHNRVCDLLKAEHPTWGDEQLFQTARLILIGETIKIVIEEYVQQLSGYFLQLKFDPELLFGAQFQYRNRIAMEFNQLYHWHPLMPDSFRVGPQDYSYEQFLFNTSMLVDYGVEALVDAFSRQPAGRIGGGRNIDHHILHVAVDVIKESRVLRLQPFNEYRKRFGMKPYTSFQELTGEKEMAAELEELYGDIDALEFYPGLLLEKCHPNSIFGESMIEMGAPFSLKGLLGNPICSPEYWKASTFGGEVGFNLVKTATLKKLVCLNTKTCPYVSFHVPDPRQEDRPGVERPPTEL
# aromatase (CYP19) = target: T2, aromatase (CYP19) (Homo sapiens, UniProt P11511); experiment: CYP19 enzyme, dibenzylfluorescein fluorescence assay; assay type: biochemical
# T2 sequence (P11511 1-503): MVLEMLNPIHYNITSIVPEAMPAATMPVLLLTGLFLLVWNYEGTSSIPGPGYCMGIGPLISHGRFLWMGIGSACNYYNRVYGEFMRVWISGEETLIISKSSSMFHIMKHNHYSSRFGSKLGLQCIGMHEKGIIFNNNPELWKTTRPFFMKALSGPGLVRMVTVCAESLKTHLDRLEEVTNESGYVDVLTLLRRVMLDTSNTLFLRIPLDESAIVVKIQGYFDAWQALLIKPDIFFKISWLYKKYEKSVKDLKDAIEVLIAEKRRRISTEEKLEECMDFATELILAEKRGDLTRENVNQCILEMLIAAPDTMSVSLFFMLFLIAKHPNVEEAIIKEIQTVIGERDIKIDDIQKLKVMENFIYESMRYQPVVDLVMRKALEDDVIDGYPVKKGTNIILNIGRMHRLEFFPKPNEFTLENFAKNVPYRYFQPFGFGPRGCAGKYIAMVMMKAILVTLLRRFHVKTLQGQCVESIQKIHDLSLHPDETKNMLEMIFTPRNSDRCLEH
inhibition at 10 µg/mL (COX-1) [%],IC50 (aromatase (CYP19)) [µM],SMILES
52,–,"CC(=O)OC[C@H]1OC(O[C@@H]2[C@@H](OCCC(=O)C(C)C)[C@@H](O)[C@H](Oc3c(-c4ccc(O)cc4)oc4cc(O)cc(O)c4c3=O)O[C@H]2C)[C@H](O)[C@@H](O)[C@@H]1O (stereo partly drawn) [compound 1, kaempferol 3-O-[(6‴-O-acetyl-β-D-glucopyranosyl)-(1→4)-3″-O-(4⁗, 4⁗-dimethyl-3-oxo-butyl)-α-L-rhamnopyranoside]]"
–,15.5,"CC(=O)OC[C@H]1O[C@@H](O[C@@H]2[C@@H](O)[C@@H](O)[C@H](Oc3c(-c4ccc(O)cc4)oc4cc(O)cc(O)c4c3=O)O[C@H]2C)[C@H](O)[C@@H](O)[C@@H]1O [compound 4, multiflorin A]"
